Test results from patent US6706663B2, “Herbicidal 3-heterocyclic substituted benzisothiazole and benzisoxazole compounds” (Wyeth, priority 2000, dated 2004).

How the values were obtained:
SETVI (Setaria viridis) = test: Preemergence herbicidal evaluation; assay type: in vivo, (L.) Beau; conditions: rated 4-5 weeks after treatment
Procedure, shortened: (§1)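 Seeds planted in potting soil cups and sprayed preemergence with aqueous acetone compound solution. Greenhouse-grown; rated 4–5 weeks after treatment on a 0-9 visual scale (stand, vigor, malformation, size, chlorosis, appearance) versus control.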

[1] = system: ECHCG (Echinochloa crus-galli); test: Preemergence herbicidal evaluation; assay type: in vivo, (L.) Beau; conditions: rated 4-5 weeks after treatment
Procedure, shortened: as §1

ORYSAT (Rice, Tebonnet) [2] = test: Preemergence herbicidal evaluation; assay type: in vivo, Oryza sativa, (L.) Tebonnet; conditions: rated 4-5 weeks after treatment
[3] = system: TRZAWR (Wheat, Winter, cv Riband); test: Preemergence herbicidal evaluation; assay type: in vivo, Triticum aestivum; conditions: rated 4-5 weeks after treatment
Procedure, shortened: as §1

ZEAMX (Corn, Field) = test: Postemergence herbicidal evaluation; assay type: in vivo, Zea mays, L.; conditions: postemergence
Procedure, shortened: (§2)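 Seedlings grown about two weeks in flats, sprayed, then kept under standard greenhouse care. Rated visually 4–5 weeks after treatment on a 0–9 scale (stand, vigour, malformation, size, chlorosis, overall appearance) relative to untreated control; repeat tests averaged.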

GALAP (Galium aparine) = test: Postemergence herbicidal evaluation; assay type: in vivo; conditions: postemergence
Procedure, shortened: as §2

ORYSAT (Rice, Tebonnet) [4] = test: Postemergence herbicidal evaluation; assay type: in vivo, Oryza sativa, (L.) Tebonnet; conditions: postemergence
Procedure, shortened: as §2

[5] = system: GLXMAW (Soybean, Williams); test: Postemergence herbicidal evaluation; assay type: in vivo, Glycine max, (L.) Merr. cv Williams; conditions: postemergence
Procedure, shortened: as §2

[6] = system: ABUTH (Abutilon theophrasti); test: Postemergence herbicidal evaluation; assay type: in vivo, Medic.; conditions: postemergence
Procedure, shortened: as §2

[7] = system: IPOHE (Ipomoea hederacea); test: Postemergence herbicidal evaluation; assay type: in vivo, (L.) Jacq.; conditions: postemergence
Procedure, shortened: as §2

[8] = system: CHEAL (Chenopodium album); test: Postemergence herbicidal evaluation; assay type: in vivo, L.; conditions: postemergence
Procedure, shortened: as §2

[9] = system: CASOB (Cassia obtusifolia); test: Postemergence herbicidal evaluation; assay type: in vivo, L.; conditions: postemergence
Procedure, shortened: as §2

[10] = system: AMBEL (Ambrosia artemisifolia); test: Postemergence herbicidal evaluation; assay type: in vivo, L.; conditions: postemergence
Procedure, shortened: as §2

SMILES	Preemergence herbicidal rating SETVI (SETVI (Setaria viridis); Rate 0.0620 kg/ha)	Preemergence herbicidal rating SETVI (SETVI (Setaria viridis); Rate 0.1250 kg/ha)	Preemergence herbicidal rating SETVI (SETVI (Setaria viridis); Rate 0.2500 kg/ha)	Preemergence herbicidal rating ECHCG ([1]; Rate 0.0620 kg/ha)	Preemergence herbicidal rating ECHCG ([1]; Rate 0.1250 kg/ha)	Preemergence herbicidal rating ECHCG ([1]; Rate 0.2500 kg/ha)	Preemergence herbicidal rating ORYSAT (ORYSAT (Rice, Tebonnet) [2]; Rate 0.0620 kg/ha)	Preemergence herbicidal rating ORYSAT (ORYSAT (Rice, Tebonnet) [2]; Rate 0.1250 kg/ha)	Preemergence herbicidal rating ORYSAT (ORYSAT (Rice, Tebonnet) [2]; Rate 0.2500 kg/ha)	Preemergence herbicidal rating TRZAWR ([3]; Rate 0.0620 kg/ha)	Preemergence herbicidal rating TRZAWR ([3]; Rate 0.1250 kg/ha)	Preemergence herbicidal rating TRZAWR ([3]; Rate 0.2500 kg/ha)	ZEAMX herbicidal rating (ZEAMX (Corn, Field); rate 0.0320 kg/ha)	ZEAMX herbicidal rating (ZEAMX (Corn, Field); rate 0.0620 kg/ha)	GALAP herbicidal rating (GALAP (Galium aparine); rate 0.0320 kg/ha)	GALAP herbicidal rating (GALAP (Galium aparine); rate 0.0620 kg/ha)	ORYSAT herbicidal rating (ORYSAT (Rice, Tebonnet) [4]; rate 0.0320 kg/ha)	ORYSAT herbicidal rating (ORYSAT (Rice, Tebonnet) [4]; rate 0.0620 kg/ha)	GLXMAW herbicidal rating ([5]; rate 0.0320 kg/ha)	GLXMAW herbicidal rating ([5]; rate 0.0620 kg/ha)	further results
Cc1nn(-c2nsc3ccc(-n4c(=O)cc(C(F)(F)F)n(C)c4=O)cc23)c(C)c1C [Compound 49, 1-methyl-6-(trifluoromethyl)-3-[3-(3,4,5-trimethylpyrazol-1-yl)-1,2-benzisothiazol-5-yl]uracil]	0.0	0.0	0.0	0.0	0.0	0.0	0.0	0.0	0.0	0.0	0.0	0.0	0.5	2.5	0.0	0.0	0.5	1.5	1.5	2.5	ABUTH herbicidal rating ([6]; rate 0.0320 kg/ha): 0.0; ABUTH herbicidal rating ([6]; rate 0.0620 kg/ha): 0.0; IPOHE herbicidal rating ([7]; rate 0.0320 kg/ha): 5.0; IPOHE herbicidal rating ([7]; rate 0.0620 kg/ha): 8.0; CHEAL herbicidal rating ([8]; rate 0.0320 kg/ha): 0.0; CHEAL herbicidal rating ([8]; rate 0.0620 kg/ha): 0.0; CASOB herbicidal rating ([9]; rate 0.0320 kg/ha): 0.0; CASOB herbicidal rating ([9]; rate 0.0620 kg/ha): 0.0; AMBEL herbicidal rating ([10]; rate 0.0320 kg/ha): 0.0; AMBEL herbicidal rating ([10]; rate 0.0620 kg/ha): 0.0
C[C@@H]1C[C@H](C)OC(c2nsc3ccc(-n4c(=O)cc(C(F)(F)F)n(C)c4=O)cc23)O1 (stereo partly drawn) [Compound 50, 3-[3-[(4R,6S)-4,6-dimethyl-m-dioxan-2-yl]-1,2-benzisothiazol-5-yl]-1-methyl-6-(trifluoromethyl)uracil]	9.0	9.0	9.0	9.0	9.0	9.0	6.5	8.5	9.0	7.0	8.0	9.0	4.0	5.0	3.0	8.0	5.5	4.5	7.5	7.5	ABUTH herbicidal rating ([6]; rate 0.0320 kg/ha): 9.0; ABUTH herbicidal rating ([6]; rate 0.0620 kg/ha): 9.0; IPOHE herbicidal rating ([7]; rate 0.0320 kg/ha): 9.0; IPOHE herbicidal rating ([7]; rate 0.0620 kg/ha): 9.0; CHEAL herbicidal rating ([8]; rate 0.0320 kg/ha): 8.0; CHEAL herbicidal rating ([8]; rate 0.0620 kg/ha): 9.0; CASOB herbicidal rating ([9]; rate 0.0320 kg/ha): 5.0; CASOB herbicidal rating ([9]; rate 0.0620 kg/ha): 5.0; AMBEL herbicidal rating ([10]; rate 0.0320 kg/ha): 9.0; AMBEL herbicidal rating ([10]; rate 0.0620 kg/ha): 9.0
C[C@@H]1C[C@H](C)OC(c2nsc3ccc(-n4c(=O)cc(C(F)(F)F)n(C)c4=O)cc23)O1 (stereo partly drawn) [Compound 51, 3-[3-[(4R,6S)-4,6-dimethyl-m-dioxan-2-yl]-1,2-benzisothiazol-5-yl]-1-methyl-6-(trifluoromethyl)uracil]	9.0	9.0	9.0	9.0	9.0	9.0	8.5	9.0	9.0	9.0	9.0	9.0	5.0	5.5	2.0	5.0	3.0	4.0	5.0	7.5	ABUTH herbicidal rating ([6]; rate 0.0320 kg/ha): 9.0; ABUTH herbicidal rating ([6]; rate 0.0620 kg/ha): 9.0; IPOHE herbicidal rating ([7]; rate 0.0320 kg/ha): 9.0; IPOHE herbicidal rating ([7]; rate 0.0620 kg/ha): 9.0; CHEAL herbicidal rating ([8]; rate 0.0320 kg/ha): 7.0; CHEAL herbicidal rating ([8]; rate 0.0620 kg/ha): 8.0; CASOB herbicidal rating ([9]; rate 0.0320 kg/ha): 2.0; CASOB herbicidal rating ([9]; rate 0.0620 kg/ha): 6.0; AMBEL herbicidal rating ([10]; rate 0.0320 kg/ha): 9.0; AMBEL herbicidal rating ([10]; rate 0.0620 kg/ha): 9.0
